The values that follow are results of earlier work, collected in patent US6660286B1, “Emulsion vehicle for poorly soluble drugs” (Sonus Pharmaceuticals, Inc., priority 1997, dated 2003).

Read-outs that look alike come from different tables or passages of the source. Some results are limits rather than exact numbers.

Turning to `CC(=O)O[C@H]1C(=O)[C@@]2(C)[C@H]([C@H](OC(=O)c3ccccc3)[C@]3(O)C[C@H](OC(=O)[C@H](O)[C@@H](NC(=O)c4ccccc4)c4ccccc4)C(C)=C1C3(C)C)[C@]1(OC(C)=O)CO[C@@H]1C[C@@H]2O` [paclitaxel], the solubility of paclitaxel (30% PVP in water) was not above 300 µg/mL; the solubility of paclitaxel (35% PEG 400 in water) was 30 µg/mL; the solubility of paclitaxel (admixtures of PEG 400 and water containing 50-100% PEG 400) is 200 to 175000 µg/mL.
